According to patent EP2243494A1, “Pharmaceutical composition, comprising a steroid-dehydrogenase-reductase inhibitor, and a mineralocorticoid receptor antagonist” (OntoChem GmbH, priority 2009, dated 2010):

Key:
monocytes = test: Monocyte/macrophage differentiation and functional changes (RT-PCR or microarray analysis); format: cell-based, Rodent and human; conditions: for cell proliferation and maturation of monocytes: 10^-7 M cortisol, 10^-9 M aldosteron
Method: Rodent and human monocytes were studied during their differentiation process towards macrophages in the presence or absence of different, physiologically relevant levels of cortisol or corticosterone, as well as aldosterone, respectively.
Glucocorticoid receptor (GR) and mineralocorticoid receptor occupancy was modulated with either eplerenone or ZK91587 or canrenoate (as MR-antagonists) or RU486 (GR-antagonist). […] (dehydrocorticosterone in rodent cells) was added as a substrate for 11-beta-HSD1. Metyrapone was used to block 11-beta-HSD1 reductase activity. Inhibitors were added with 10^-7 M cortisol, 10^-9 M aldosteron concentration, HSD inhibitors were added in 10^-6 M concentration.
Monocytes were first stimulated with either lipopolysaccharide (LPS) or Tumor-necrosis-factor-alpha (TNF-apha), interferone-gamma (IFN-gamma), interleukin-13 (IL-13) or interleukin-4 (IL-4) before differentiation into macrophages in the presence of above different agonist/antagonist combinations. In order to evaluate the linkage between inflammation and metabolic disease, mature macrophages were also stimulated with fatty acids via the Toll-like-receptor 4.

[1] = target: T1, mineralocorticoid receptor (Homo sapiens, UniProt P08235); conditions: relative to aldosterone; cited from earlier work
T1 sequence (P08235 1-984): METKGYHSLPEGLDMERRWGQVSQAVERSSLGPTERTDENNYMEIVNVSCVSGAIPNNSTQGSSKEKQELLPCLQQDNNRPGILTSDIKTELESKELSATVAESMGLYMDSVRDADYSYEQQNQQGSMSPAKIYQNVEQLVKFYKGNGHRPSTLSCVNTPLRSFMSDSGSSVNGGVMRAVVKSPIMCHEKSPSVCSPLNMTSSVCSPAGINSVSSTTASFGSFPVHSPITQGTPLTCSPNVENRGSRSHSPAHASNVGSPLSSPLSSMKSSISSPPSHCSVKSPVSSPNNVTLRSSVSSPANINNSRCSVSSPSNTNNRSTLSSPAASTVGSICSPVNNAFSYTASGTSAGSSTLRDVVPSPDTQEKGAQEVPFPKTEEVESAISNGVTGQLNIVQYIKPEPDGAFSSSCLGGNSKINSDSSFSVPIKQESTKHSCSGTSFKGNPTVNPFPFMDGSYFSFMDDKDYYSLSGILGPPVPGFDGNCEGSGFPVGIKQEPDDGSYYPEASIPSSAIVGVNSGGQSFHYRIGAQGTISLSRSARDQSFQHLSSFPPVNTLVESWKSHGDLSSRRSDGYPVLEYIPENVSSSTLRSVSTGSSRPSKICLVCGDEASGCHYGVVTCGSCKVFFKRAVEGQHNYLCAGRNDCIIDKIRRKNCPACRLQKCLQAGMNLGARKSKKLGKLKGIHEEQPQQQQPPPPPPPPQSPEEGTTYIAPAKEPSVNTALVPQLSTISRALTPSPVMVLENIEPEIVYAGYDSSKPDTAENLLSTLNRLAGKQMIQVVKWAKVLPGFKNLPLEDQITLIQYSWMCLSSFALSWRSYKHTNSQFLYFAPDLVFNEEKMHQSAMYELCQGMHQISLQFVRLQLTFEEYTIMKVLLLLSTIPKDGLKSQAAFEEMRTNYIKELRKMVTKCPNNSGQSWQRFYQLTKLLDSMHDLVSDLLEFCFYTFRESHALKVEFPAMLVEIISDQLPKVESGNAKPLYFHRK

[2] = test system: Vascular smooth muscle cells; test: GR or MR blockade and 11-beta-HSD-2 inhibition in vascular cells; format: cell-based; conditions: physiologically relevant levels of aldosterone
Method: Vascular smooth muscle cells were incubated with varying combinations of a MR or GR-antagonist and physiologically relevant levels of cortisol or aldosterone; importantly, adosterone and cortisol were also used in combination to mimic specific interactions between the ligand-receptor and co-factor recruitment as observed in vitro and in vivo.

[3] = heart failure patients, normal or low aldosterone, added to ACE inhibitor, loop diuretic and digoxin; cited from earlier work

SMILES | cell proliferation and maturation of monocytes (monocytes) | vascular endothelial growth factor (VEGF) and ICAM-1 induction [2] | decrease of post-myocardial infarction morbidity and mortality rate [3] | further results
C[C@]12CCC(=O)C=C1CC[C@@H]1[C@@H]2[C@@H](O)C[C@@]2(C)[C@H]1CC[C@]2(O)C(=O)CO [cortisol] | induced cell proliferation and maturation of monocytes |  |  | affinity to the mineralocorticoid receptor, higher than aldosterone [1]: 10-30 fold
C[C@]12CCC(=O)C=C1CC[C@@H]1[C@@H]2[C@@H](O)C[C@]2(C=O)[C@@H](C(=O)CO)CC[C@@H]12 [aldosterone] | induced cell proliferation and maturation of monocytes | induced vascular endothelial growth factor (VEGF) as well as ICAM-1 |  | macrophage phenotype (NfkappaB, RANK-ligand, interleukin-6, ROS, plasminogen activator inhibitor-1) (monocytes; induction with aldosterone): more proinflammatory macrophage phenotype
CC(=O)S[C@@H]1CC2=CC(=O)CC[C@]2(C)[C@H]2CC[C@@]3(C)[C@@H](CC[C@@]34CCC(=O)O4)[C@H]12 [spironolactone] |  |  | about 30% | 
CC(C)(C(=O)c1cccnc1)c1cccnc1 [metyrapone] |  |  |  | effect on macrophage differentiation and function (monocytes; HSD inhibitors added in 10^-6 M concentration): the effects of aldosterone at the high affinitity MR were enhanced or were able to override glucocorticoid mediated effects
COC(=O)[C@@H]1CC2=CC(=O)CC[C@]2(C)[C@@]23O[C@@H]2C[C@@]2(C)[C@@H](CC[C@@]24CCC(=O)O4)[C@H]13 [eplerenone] |  | reversed this effect | ~15% | 
C[C@]12CCC(=O)C=C1CC[C@@H]1[C@@H]2C(=O)C[C@@]2(C)[C@H]1CC[C@]2(O)C(=O)CO [cortisone] | induced cell proliferation and maturation of monocytes |  |  | 
